Data taken from the NIST ThermoML archive (doi:10.1016/j.jct.2005.03.020).
± gives the expanded uncertainty stated by the source.

Columns and labels:
[1] = 298.15 K; 101.33 kPa; Liquid
[2] = refractive index (Na D-line) (dimensionless); conditions: 298.15 K; 101.33 kPa; Liquid; Standard Abbe refractometry
[3] = xn = mol fraction of the nth substance listed; conditions: 298.15 K, 101.33 kPa, Liquid
[4] = excess molar enthalpy (molar enthalpy of mixing); xn = mol fraction of the nth substance listed; conditions: 298.15 K, 101.33 kPa, Liquid

CCOC(C)=O [ethyl acetate]
Conditions	mass density [kg/m3]	refractive index
[1]	894.33 ± 0.3	–
[2]	–	1.3692 ± 0.0007

CCCC(=O)OCC [ethyl butanoate]
Conditions	mass density [kg/m3]	refractive index
[1]	873.54 ± 1.1	–
[2]	–	1.3895 ± 0.0008

CCCC(=O)OCC [ethyl butanoate] + ClCCCl
Conditions	excess molar enthalpy [kcal/mol]	mass density [kg/m3]
[3], x1 = 0.0378	–	1221.95 ± 0.79
[3], x1 = 0.075	–	1199.86 ± 0.75
[3], x1 = 0.1149	–	1177.55 ± 0.73
[3], x1 = 0.1568	–	1155.49 ± 0.7
[3], x1 = 0.198	–	1134.78 ± 0.68
[3], x1 = 0.2425	–	1113.63 ± 0.67
[3], x1 = 0.2957	–	1089.91 ± 0.66
[3], x1 = 0.3476	–	1068.19 ± 0.65
[3], x1 = 0.4019	–	1046.72 ± 0.66
[3], x1 = 0.46	–	1025.2 ± 0.67
[3], x1 = 0.5234	–	1003.08 ± 0.68
[3], x1 = 0.5887	–	981.85 ± 0.73
[3], x1 = 0.6583	–	960.62 ± 0.78
[3], x1 = 0.7338	–	939.07 ± 0.83
[3], x1 = 0.8138	–	917.85 ± 0.89
[3], x1 = 0.9027	–	895.87 ± 0.95
[4], x1 = 0.0372	-0.00574 ± 0.000478	–
[4], x1 = 0.0865	-0.016 ± 0.000621	–
[4], x1 = 0.1386	-0.0291 ± 0.000837	–
[4], x1 = 0.1921	-0.0436 ± 0.00105	–
[4], x1 = 0.2431	-0.0589 ± 0.00129	–
[4], x1 = 0.2939	-0.0737 ± 0.00151	–
[4], x1 = 0.3419	-0.0863 ± 0.00172	–
[4], x1 = 0.388	-0.0979 ± 0.00189	–
[4], x1 = 0.4274	-0.105 ± 0.00201	–
[4], x1 = 0.4838	-0.109 ± 0.00206	–
[4], x1 = 0.5489	-0.11 ± 0.00208	–
[4], x1 = 0.5825	-0.108 ± 0.00203	–
[4], x1 = 0.6236	-0.104 ± 0.00198	–
[4], x1 = 0.7068	-0.0906 ± 0.00177	–
[4], x1 = 0.7989	-0.0682 ± 0.00143	–
[4], x1 = 0.8971	-0.0405 ± 0.001	–
[4], x1 = 0.9325	-0.0292 ± 0.000837	–

CCOC=O [ethyl methanoate]
Conditions	mass density [kg/m3]	refractive index
[1]	914.17 ± 1.6	–
[2]	–	1.358 ± 0.0009

CCCCC(=O)OCC [ethyl pentanoate]
Conditions	mass density [kg/m3]	refractive index
[1]	869.42 ± 0.62	–
[2]	–	1.398 ± 0.0008

CCCCC(=O)OCC [ethyl pentanoate] + ClCCCCCl
Conditions	excess molar enthalpy [kcal/mol]	mass density [kg/m3]
[3], x1 = 0.0426	–	1118.97 ± 0.73
[3], x1 = 0.0881	–	1103.57 ± 0.7
[3], x1 = 0.1345	–	1088.34 ± 0.68
[3], x1 = 0.1844	–	1072.46 ± 0.65
[3], x1 = 0.2407	–	1055.13 ± 0.62
[3], x1 = 0.2932	–	1039.54 ± 0.6
[3], x1 = 0.3462	–	1024.28 ± 0.57
[3], x1 = 0.4021	–	1008.72 ± 0.55
[3], x1 = 0.4541	–	994.67 ± 0.54
[3], x1 = 0.5187	–	977.83 ± 0.55
[3], x1 = 0.5829	–	961.7 ± 0.56
[3], x1 = 0.6452	–	946.59 ± 0.57
[3], x1 = 0.7045	–	932.66 ± 0.58
[3], x1 = 0.7796	–	915.67 ± 0.6
[3], x1 = 0.8521	–	899.89 ± 0.62
[3], x1 = 0.925	–	884.57 ± 0.64
[4], x2 = 0.0443	-0.00368 ± 0.00043	–
[4], x2 = 0.0938	-0.00985 ± 0.000526	–
[4], x2 = 0.1472	-0.0156 ± 0.000621	–
[4], x2 = 0.2021	-0.0229 ± 0.000717	–
[4], x2 = 0.2576	-0.0317 ± 0.00086	–
[4], x2 = 0.3103	-0.04 ± 0.001	–
[4], x2 = 0.3615	-0.0492 ± 0.00112	–
[4], x2 = 0.4093	-0.0553 ± 0.00122	–
[4], x2 = 0.4542	-0.0607 ± 0.00131	–
[4], x2 = 0.4637	-0.062 ± 0.00134	–
[4], x2 = 0.5038	-0.0642 ± 0.00136	–
[4], x2 = 0.5509	-0.0653 ± 0.00139	–
[4], x2 = 0.6143	-0.0639 ± 0.00136	–
[4], x2 = 0.6866	-0.0592 ± 0.00129	–
[4], x2 = 0.7631	-0.0504 ± 0.00115	–
[4], x2 = 0.8429	-0.0372 ± 0.000956	–
[4], x2 = 0.9262	-0.0202 ± 0.000693	–

CCCCC(=O)OCC [ethyl pentanoate] + ClCCCCl
Conditions	excess molar enthalpy [kcal/mol]	mass density [kg/m3]
[3], x1 = 0.0395	–	1159.55 ± 0.81
[3], x1 = 0.0785	–	1141.75 ± 0.78
[3], x1 = 0.1207	–	1123.43 ± 0.74
[3], x1 = 0.1642	–	1105.29 ± 0.71
[3], x1 = 0.2098	–	1087.19 ± 0.68
[3], x1 = 0.2576	–	1069.12 ± 0.64
[3], x1 = 0.3081	–	1050.97 ± 0.61
[3], x1 = 0.3623	–	1032.41 ± 0.59
[3], x1 = 0.4179	–	1014.41 ± 0.56
[3], x1 = 0.4804	–	995.25 ± 0.54
[3], x1 = 0.538	–	978.58 ± 0.55
[3], x1 = 0.6036	–	960.5 ± 0.56
[3], x1 = 0.744	–	925.06 ± 0.59
[3], x1 = 0.8249	–	906.38 ± 0.61
[3], x1 = 0.9085	–	888.3 ± 0.63
[4], x2 = 0.0493	-0.00743 ± 0.000478	–
[4], x2 = 0.0986	-0.0147 ± 0.000598	–
[4], x2 = 0.1536	-0.0238 ± 0.000741	–
[4], x2 = 0.2082	-0.0333 ± 0.000884	–
[4], x2 = 0.261	-0.0426 ± 0.00103	–
[4], x2 = 0.3126	-0.052 ± 0.00117	–
[4], x2 = 0.3627	-0.061 ± 0.00131	–
[4], x2 = 0.4084	-0.066 ± 0.00139	–
[4], x2 = 0.4405	-0.0697 ± 0.00146	–
[4], x2 = 0.4492	-0.0707 ± 0.00146	–
[4], x2 = 0.5044	-0.0725 ± 0.00151	–
[4], x2 = 0.5692	-0.0725 ± 0.00148	–
[4], x2 = 0.6438	-0.0687 ± 0.00143	–
[4], x2 = 0.7284	-0.0593 ± 0.00129	–
[4], x2 = 0.8181	-0.0439 ± 0.00105	–
[4], x2 = 0.9124	-0.0246 ± 0.000765	–

CCCCC(=O)OCC [ethyl pentanoate] + ClCCCl
Conditions	excess molar enthalpy [kcal/mol]	mass density [kg/m3]
[3], x1 = 0.0345	–	1220.93 ± 0.78
[3], x1 = 0.0687	–	1198.23 ± 0.73
[3], x1 = 0.1042	–	1176.06 ± 0.69
[3], x1 = 0.1425	–	1153.66 ± 0.64
[3], x1 = 0.1817	–	1132.12 ± 0.6
[3], x1 = 0.2273	–	1108.84 ± 0.56
[3], x1 = 0.2723	–	1087.35 ± 0.53
[3], x1 = 0.324	–	1064.47 ± 0.49
[3], x1 = 0.3767	–	1042.83 ± 0.46
[3], x1 = 0.4332	–	1021.3 ± 0.44
[3], x1 = 0.4956	–	999.37 ± 0.42
[3], x1 = 0.5633	–	977.31 ± 0.45
[3], x1 = 0.6342	–	956.13 ± 0.49
[3], x1 = 0.7134	–	934.52 ± 0.53
[3], x1 = 0.7992	–	912.89 ± 0.57
[3], x1 = 0.894	–	893.96 ± 0.61
[4], x2 = 0.0371	-0.00712 ± 0.000478	–
[4], x2 = 0.098	-0.0147 ± 0.000598	–
[4], x2 = 0.126	-0.0245 ± 0.000765	–
[4], x2 = 0.1732	-0.0363 ± 0.000932	–
[4], x2 = 0.2196	-0.0475 ± 0.00112	–
[4], x2 = 0.2666	-0.0614 ± 0.00134	–
[4], x2 = 0.3122	-0.0744 ± 0.00153	–
[4], x2 = 0.3542	-0.0839 ± 0.00167	–
[4], x2 = 0.4265	-0.0924 ± 0.00179	–
[4], x2 = 0.4641	-0.0946 ± 0.00184	–
[4], x2 = 0.5103	-0.0954 ± 0.00184	–
[4], x2 = 0.5638	-0.0959 ± 0.00186	–
[4], x2 = 0.626	-0.0916 ± 0.00179	–
[4], x2 = 0.7011	-0.0817 ± 0.00165	–
[4], x2 = 0.7962	-0.0618 ± 0.00134	–
[4], x2 = 0.896	-0.0363 ± 0.000932	–

CCOC(=O)CC [ethyl propanoate]
Conditions	mass density [kg/m3]	refractive index
[1]	884.02 ± 0.6	–
[2]	–	1.3815 ± 0.0008
